According to patent US20130269045A1, “HB-EGF DEFICIENT TRANSGENIC ANIMAL AND PRODUCTION METHOD THEREOF” (Nagasaki University, priority 2012, published 2013):

What was measured:
Type in all cases: in vivo
[1] = test system: HB-EGF deficient type TG mouse; assay: Nest-building test (social behavior, interest and consideration for the surrounding environment); conditions: 1 mg/kg i.p. once a day for 7 days; for state of the nest: collecting the cotton in one place and making the nest: FIG. 16(a); for amount of the cotton that was not used for the nest-building: Nestlet 2.5 g provided, FIG. 16(c); for rating on 5-point scale for the state of the nest: score criteria 1-5 (5 = almost perfect nest), FIG. 16(b)
Protocol: The nest-building test was carried out in accordance with the following processes. First, from one hour before the darkness period (19:00) of the light and darkness cycle (light period 8:00 to 20:00/darkness period 20:00 to 8:00), each mouse was reared alone in a new cage, and provided with Nestlet (2.5 g) that is a material for the nest-building. During the darkness period 20:00 to 8:00, each mouse acted freely, in the next morning the nest shape that was made by each mouse was scored on 5-point scale, and the unused Nestlet amount was measured. The score was determined by the following criteria.
1: 90% of the Nestlet was unused.
2: the Nestlet was slightly used, however, 50 to 90% of the Nestlet was left unused.
3: 50 to 90% of the Nestlet was torn off finely, and the shape was not maintained as the nest.
5: 90% or more of the Nestlet was torn off finely, and used as a material of the nest, the nest was dug into a crater-like shape, and the (almost) perfect nest that buries the whole body of the mouse when viewed from the side was confirmed.
(§1) As the therapeutic agent, three drugs of atomoxetine (1 mg/kg), nefiracetam (1 mg/kg), and SA4503 (1 mg/kg) were used independently to administer into the abdominal cavity once a day for 7 days in a row. As a control of the therapeutic agent, saline was administered into the abdominal cavity once a day for 7 days in a row.

[2] = test system: HB-EGF deficient type TG mouse; assay: Marble-burying behavior test (obsessive-compulsive disorder related anxiety-like behavior); conditions: 1 mg/kg i.p. once a day for 7 days; for number of the marbles that were buried: 25 marbles, 30 minutes, saline group: large, FIG. 17
Protocol: The marble-burying behavior test was carried out in accordance with the following processes. First, in a cage in which bedding was carpeted in around 5 cm depth, 25 blue-colored marbles with 17 mm were equally arranged, and the marble-burying behavior of each mouse were measured for 30 minutes. After a lapse of 30 minutes, when observed from straight above, the marbles those were buried two-thirds or more thereof with bedding were counted. Further, the acting amount of burying marbles was determined by SCANET. In the marble-burying behavior test, the more the number of marbles that buried after the test, the more the anxiety-like behavior enhanced.
as §1

[3] = test system: HB-EGF deficient type TG mouse; assay: Cylindrical platform test (impulsivity), ratio of mice remained on the platform; conditions: for impulsivity (conclusion in words): HB-EGF deficient type TG mouse, 1 mg/kg i.p. once a day for 7 days; for ratio of the mice that were remained on the platform: HB-EGF deficient type mouse, 1 mg/kg into the abdominal cavity once a day for 7 days, column height 20 cm, diameter 10 cm, untreated TG only 20%, non-deficient 80% or more
Protocol: Further, the behavior of each mouse of the descending from the top of the platform to the floor was observed by classifying into the positive performing (=jumped down from the head) and the negative performing (=fall off from the tail).
as §1
In the mouse in which HB-EGF is not deficient, 80% or more of the mice were remained on the platform. On the other hand, in the HB-EGF deficient type mouse, only 20% of the mice were remained on the platform. However, in the case of administering atomoxetine to the HB-EGF deficient type mouse, 50% or more of the mice were remained on the platform. Further, in the case of administering nefiracetam to the HB-EGF deficient type mouse, 70% or more of the mice were remained on the platform.

## COc1ccc(CCN2CCN(CCCc3ccccc3)CC2)cc1OC [SA4503]
[1]
  social behavior, interest and consideration for the surrounding environment (conclusion in words): improved the social behavior, and the interest and consideration for the surrounding environment
  state of the nest: collecting the cotton in one place and making the nest: could collect the cotton in one place and could make the nest
  amount of the cotton that was not used for the nest-building: around 0.1 g
  rating on 5-point scale for the state of the nest: 5
[2]
  number of the marbles that were buried: the same level as that of the HB-EGF deficient type TG mouse into which saline had been administered

## CNCC[C@@H](Oc1ccccc1C)c1ccccc1 [atomoxetine]
[3]
  impulsivity (conclusion in words): the impulsivity was suppressed
  ratio of the mice that were remained on the platform: ≥ 50%
[1]
  state of the nest: collecting the cotton in one place and making the nest: could not collect the cotton in one place and could not make the nest
  rating on 5-point scale for the state of the nest: ≤ 3
[2]
  number of the marbles that were buried: the same level as that of the HB-EGF deficient type TG mouse into which saline had been administered

## Cc1cccc(C)c1NC(=O)CN1CCCC1=O [nefiracetam]
[3]
  impulsivity (conclusion in words): the impulsivity was suppressed
  ratio of the mice that were remained on the platform: ≥ 70%
[1]
  social behavior, interest and consideration for the surrounding environment (conclusion in words): improved the social behavior, and the interest and consideration for the surrounding environment
  state of the nest: collecting the cotton in one place and making the nest: could collect the cotton in one place and could make the nest
  amount of the cotton that was not used for the nest-building: around 0.1 g
  rating on 5-point scale for the state of the nest: 5
[2]
  anxiety-like behavior related to obsessive-compulsive disorder (conclusion in words): the anxiety-like behavior related to obsessive-compulsive disorder was decreased
  number of the marbles that were buried: small
